Patent publication EP4806900A2, “RAS INHIBITORS” (Revolution Medicines, Inc., priority 2019, dated 2021)

tested on: NCI-H358 (K-Ras G12C); assay: CellTiter-Glo cell viability assay, NCI-H358; format: cell-based, human; conditions: Table 5; read-out: H358 Cell Viability assay data (K-Ras G12C, IC50)
Protocol: Note - The following protocol describes a procedure for monitoring cell viability of K-Ras mutant cancer cell lines in response to a compound of the invention. Other RAS isoforms may be employed, though the number of cells to be seeded will vary based on cell line used.
Test compounds (132.5 nL) were directly dispensed into the assay plates containing cells. […] On day 5, assay plates and their contents were equilibrated to room temperature for approximately 30 minutes. […] Luminescence was measured using the PerkinElmer Enspire. Data were normalized by the following: (Sample signal/Avg. DMSO)*100. The data were fit using a four-parameter logistic fit.

SMILES | IC50
CCn1c(-c2ccccc2CN(C)C)c2c3cc(ccc31)-c1cc(O)cc(c1)C[C@H](NC(=O)[C@H](C(C)C)N(C)C(=O)c1ccc(NC(=O)/C=C/CN(C)C)cn1)C(=O)N1CCC[C@H](N1)C(=O)OCC(C)(C)C2 [Compound A46] | > 1000 nM
CCn1c(-c2ccccc2CN(C)C)c2c3cc(ccc31)-c1cc(O)cc(c1)C[C@H](NC(=O)[C@H](C(C)C)N(C)C(=O)[C@H]1CCN(C(=O)/C=C/CN(C)C)C1)C(=O)N1CCC[C@H](N1)C(=O)OCC(C)(C)C2 [Compound A47] | 10 to 100 nM
C=CC(=O)N1CC[C@H](C(=O)N(C)[C@H](C(=O)N[C@H]2Cc3cc(O)cc(c3)-c3ccc4c(c3)c(c(-c3ccc(CN(C)C)cc3COC)n4CC)CC(C)(C)COC(=O)[C@@H]3CCCN(N3)C2=O)C(C)C)C1 [Compound A51] | 10 to 100 nM
C=CC(=O)N1C[C@H](C)[C@H](C(=O)N(C)[C@H](C(=O)N[C@H]2Cc3cc(O)cc(c3)-c3ccc4c(c3)c(c(-c3cccnc3COC)n4CC)CC(C)(C)COC(=O)[C@@H]3CCCN(N3)C2=O)C(C)C)C1 [Compound A56] | < 10 nM
C=CC(=O)N1C[C@H](C)[C@H](C(=O)N(C)[C@H](C(=O)N[C@H]2Cc3cc(O)cc(c3)-c3ccc4c(c3)c(c(-c3cccnc3COC)n4CC)CC(C)(C)COC(=O)[C@@H]3CCCN(N3)C2=O)C2CCCC2)C1 [Compound A57] | < 10 nM
C=CC(=O)N1CC[C@H](C(=O)N(C)[C@H](C(=O)N[C@H]2Cc3cc(O)cc(c3)-c3ccc4c(c3)c(c(C3=C(COC)COCC3)n4CC)CC(C)(C)COC(=O)[C@@H]3CCCN(N3)C2=O)C(C)C)C1 [Compound A58] | 10 to 100 nM
C=CC(=O)N1CC[C@H](C(=O)N(C)[C@H](C(=O)N[C@H]2Cc3cc(OC(C)=O)cc(c3)-c3ccc4c(c3)c(c(-c3ccccc3CN(C)C)n4CC)CC(C)(C)COC(=O)[C@@H]3CCCN(N3)C2=O)C(C)C)C1 [Compound A59] | 100 to 1000 nM
C=CC(=O)N1CC[C@H](C(=O)N(C)[C@H](C(=O)N[C@H]2Cc3cc(O)cc(c3)-c3ccc4c(c3)c(c(-c3cccnc3N3CC(OC)C3)n4CC)CC(C)(C)COC(=O)[C@@H]3CCCN(N3)C2=O)C(C)C)C1 [Compound A60] | 10 to 100 nM
C=CC(=O)N1CC[C@H](C(=O)N(C)[C@H](C(=O)N[C@H]2Cc3cc(O)cc(c3)-c3ccc4c(c3)c(c(-c3cncnc3)n4CC)CC(C)(C)COC(=O)[C@@H]3CCCN(N3)C2=O)C(C)C)C1 [Compound A61] | 10 to 100 nM
C=CC(=O)N1CC[C@H](C(=O)N(C)[C@H](C(=O)N[C@H]2Cc3cc(O)cc(c3)-c3ccc4c(c3)c(c(-c3cncc(C#N)c3)n4CC)CC(C)(C)COC(=O)[C@@H]3CCCN(N3)C2=O)C(C)C)C1 [Compound A62] | 10 to 100 nM
C=CC(=O)N1CC[C@H](C(=O)N(C)[C@H](C(=O)N[C@H]2Cc3cc(O)cc(c3)-c3ccc4c(c3)c(c(C3=C(COC)CCCC3)n4CC)CC(C)(C)COC(=O)[C@@H]3CCCN(N3)C2=O)C(C)C)C1 [Compound A64] | 10 to 100 nM
CCn1c(-c2cccnc2COC)c2c3cc(ccc31)-c1cc(O)cc(c1)C[C@H](NC(=O)[C@H](C(C)C)N(C)C(=O)c1ccc(NC(=O)/C=C/CN(C)C)cn1)C(=O)N1CCC[C@H](N1)C(=O)OCC(C)(C)C2 [Compound A67, (2E)-4-(dimethylamino)-N-(6-{[(1S)-1-{[(8S,14S)-22-ethyl-4-hydroxy-21-[2-(methoxymethyl)pyridin-3-yl]-18,18-dimethyl-9,15-dioxo-16-oxa-10,22,28-triazapentacyclo[18.5.2.1^2,^6.1^10,^14.0^23,^27]nonacosa-1(26),2,4,6(29),20,23(27),24-heptaen-8-yl]carbamoyl}-2-methylpropyl](methyl)carbamoyl}pyridin-3-yl)but-2-enamide] | 100 to 1000 nM

Second part, the compound after the results:

IC50 | SMILES
> 1000 nM | CCn1c(-c2ccccc2CN(C)C)c2c3cc(ccc31)-c1cc(O)cc(c1)C[C@H](NC(=O)[C@H](C(C)C)N(C)C(=O)c1ccc(NC(=O)/C=C/CN(C)C)cc1)C(=O)N1CCC[C@H](N1)C(=O)OCC(C)(C)C2 [Compound A49]
100 to 1000 nM | C=CC(=O)N1CC[C@H](C(=O)N(C)[C@H](C(=O)N[C@H]2Cc3cc(O)cc(c3)-c3ccc4c(c3)c(c(-c3ccc5c(c3)OCCN5C)n4CC)CC(C)(C)COC(=O)[C@@H]3CCCN(N3)C2=O)C(C)C)C1 [Compound A50]
10 to 100 nM | C=CC(=O)N1C[C@H](C)[C@H](C(=O)N(C)[C@H](C(=O)N[C@H]2Cc3cc(O)cc(c3)-c3ccc4c(c3)c(c(-c3ccccc3CN(C)C)n4CC)CC(C)(C)COC(=O)[C@@H]3CCCN(N3)C2=O)C(C)C)C1 [Compound A52]
100 to 1000 nM | C=CC(=O)N1CC[C@H](C(=O)N(C)[C@H](C(=O)N[C@H]2Cc3cc(O)cc(c3)-c3cc(F)c4c(c3)c(c(-c3ccccc3CCOC)n4CC)CC(C)(C)COC(=O)[C@@H]3CCCN(N3)C2=O)C(C)C)C1 [Compound A53]
10 to 100 nM | CCn1c(-c2cccnc2COC)c2c3cc(ccc31)-c1cc(O)cc(c1)C[C@H](NC(=O)[C@H](C(C)C)N(C)C(=O)[C@H]1CCN(C(=O)/C=C/CN(C)C)C1)C(=O)N1CCC[C@H](N1)C(=O)OCC(C)(C)C2 [Compound A54, (2S)-2-{1-[(3S)-1-[(2E)-4-(dimethylamino)but-2-enoyl]pyrrolidin-3-yl]-N-methylformamido}-N-[(8S,14S)-22-ethyl-4-hydroxy-21-[2-(methoxymethyl)pyridin-3-yl]-18,18-dimethyl-9,15-dioxo-16-oxa-10,22,28-triazapentacyclo[18.5.2.1^2,^6.1^10,^14.0^23,^27]nonacosa-1(26),2,4,6(29),20,23(27),24-heptaen-8-yl]-3-methylbutanamide]
< 10 nM | C=CC(=O)N1CC[C@H](C(=O)N(C)[C@H](C(=O)N[C@H]2Cc3cc(O)cc(c3)-c3ccc4c(c3)c(c(-c3cccnc3COC)n4CC)CC(C)(C)COC(=O)[C@@H]3CCCN(N3)C2=O)C2CCCC2)C1 [Compound A55]
100 to 1000 nM | C=CC(=O)N1CC[C@H](C(=O)N(C)[C@H](C(=O)N[C@H]2Cc3cc(O)cc(c3)-c3ccc4c(c3)c(c([C@@H]3CC=CN=C3COC)n4CC)CC(C)(C)COC(=O)[C@@H]3CCCN(N3)C2=O)C(C)C)C1 [Compound A65]
10 to 100 nM | C=CC(=O)N1CC[C@H](C(=O)N(C)[C@H](C(=O)N[C@H]2Cc3cc(O)cc(c3)-c3ccc4c(c3)c(c(-c3cccnc3COC)n4C)CC(C)(C)COC(=O)[C@@H]3CCCN(N3)C2=O)C(C)C)C1 [Compound A66]
100 to 1000 nM | C=CC(=O)N1CC[C@@]2(CCN([C@H](C(=O)N[C@H]3Cc4cc(O)cc(c4)-c4ccc5c(c4)c(c(-c4ccccc4CCOC)n5CC)CC(C)(C)COC(=O)[C@@H]4CCCN(N4)C3=O)C(C)C)C2=O)C1 [Compound A68]
10 to 100 nM | C=CS(=O)(=O)N1CC[C@H](C(=O)N(C)[C@H](C(=O)N[C@H]2Cc3cc(O)cc(c3)-c3ccc4c(c3)c(c(-c3cccnc3COC)n4CC)CC(C)(C)COC(=O)[C@@H]3CCCN(N3)C2=O)C(C)C)C1 [Compound A69]
10 to 100 nM | C=CC(=O)N1CC(C(=O)N(C)[C@H](C(=O)N[C@H]2Cc3cc(O)cc(c3)-c3ccc4c(c3)c(c(-c3cccnc3COC)n4CC)CC(C)(C)COC(=O)[C@@H]3CCCN(N3)C2=O)C(C)C)C1 [Compound A70]
